Blank lines part the entries; values can stand above or below the compound they belong to.
Assay: RP, Agilent ZORBAX Eclipse XDB-C8, 150 × 4.6 mm, 3.5 µm, 25 °C, 0.6 mL/min, estimated dead time 2.6 min; A: water + 0.1% formic acid; B: acetonitrile + 0.1% formic acid; gradient (min/%B) 0/10 5/10 30/100
Conditions: stereoisomer not certain

Compound: CN1CCC23CCCCC2C1Cc1ccc(O)cc13 (stereo unspecified)
- LC retention time: 12.1 min

Compound: CCCC(C)(COC(N)=O)COC(N)=O
- LC retention time: 14.7 min

Compound: Cn1c(=O)[nH]c2ncn(C)c2c1=O
- LC retention time: 6.3 min

Compound: CC1OC(OC2C(O)CC(OC3C(O)CC(OC4CCC5(C)C(CCC6C5CC(O)C5(C)C(C7=CC(=O)OC7)CCC65O)C4)OC3C)OC2C)CC(O)C1O (stereo unspecified)
- LC retention time: 15.2 min

Compound: CNC(=C[N+](=O)[O-])NCCSCc1ccc(CN(C)C)o1
- LC retention time: 4.6 min

Compound: CCC1OC(=O)C(C)C(OC2CC(C)(OC)C(O)C(C)O2)C(C)C(OC2OC(C)CC(N(C)C)C2O)C(C)(O)CC(C)C(=NOCOCCOC)C(C)C(O)C1(C)O (stereo unspecified)
- LC retention time: 16.2 min

Compound: COc1ccc2c3c1OC1C(=O)CCC4(O)C(C2)N(C)CCC314 (stereo unspecified)
- LC retention time: 9.4 min

Compound: CC1(C)SC2C(NC(=O)COc3ccccc3)C(=O)N2C1C(=O)O (stereo unspecified)
- LC retention time: 17.9 min

Compound: CC1(C)SC2C(NC(=O)Cc3ccccc3)C(=O)N2C1C(=O)O (stereo unspecified)
- LC retention time: 16.9 min

Compound: CCC1OC(=O)C(C)C(OC2CC(C)(OC)C(O)C(C)O2)C(C)C(OC2OC(C)CC(N(C)C)C2O)C(C)(O)CC(C)C(=O)C(C)C(O)C1(C)O (stereo unspecified)
- LC retention time: 14.6 min

Compound: COc1cc(Cc2cnc(N)nc2N)cc(OC)c1OC
- LC retention time: 10.4 min

Compound: CCC1OC(=O)C(C)C(OC2CC(C)(OC)C(O)C(C)O2)C(C)C(OC2OC(C)CC(N(C)C)C2O)C(C)(O)CC(C)CN(C)C(C)C(O)C1(C)O (stereo unspecified)
- LC retention time: 12.2 min

Compound: COc1ccc2c(c1)C13CCCCC1C(C2)N(C)CC3 (stereo unspecified)
- LC retention time: 14.6 min

Compound: CN=C(NC#N)NCCSCc1nc[nH]c1C
- LC retention time: 4.3 min

Compound: CCn1cc(C(=O)O)c(=O)c2cc3c(cc21)OCO3
- LC retention time: 15.4 min

Compound: CCC(C)(C)C(=O)OC1CC(C)C=C2C=CC(C)C(CCC3CC(O)CC(=O)O3)C21 (stereo unspecified)
- LC retention time: 26.9 min

Compound: CON=C(C(=O)NC1C(=O)N2C(C(=O)O)=C(COC(C)=O)CSC12)c1csc(N)n1 (stereo unspecified)
- LC retention time: 12.9 min

Compound: Cn1c(=O)c2c(ncn2C)n(C)c1=O
- LC retention time: 9.8 min

Compound: COc1ccc(C(CN(C)C)C2(O)CCCCC2)cc1 (stereo unspecified)
- LC retention time: 13.5 min

Compound: CCCC1CC(C(=O)NC(C(C)O)C2OC(SC)C(O)C(O)C2O)N(C)C1 (stereo unspecified)
- LC retention time: 8.7 min

Compound: CC(C)(C)NCC(O)c1ccc(O)c(CO)c1 (stereo unspecified)
- LC retention time: 4 min

Compound: COc1cccc(C2(O)CCCCC2CN(C)C)c1 (stereo unspecified)
- LC retention time: 11.1 min

Compound: Cc1onc(-c2ccccc2)c1C(=O)NC1C(=O)N2C1SC(C)(C)C2C(=O)O (stereo unspecified)
- LC retention time: 19.2 min

Compound: COc1ccc2c3c1OC1C(O)C=CC4C(C2)N(C)CCC341 (stereo unspecified)
- LC retention time: 7 min

Compound: CC12CCC(O)CC1CCC1C2CC(O)C2(C)C(C3=CC(=O)OC3)CCC12O (stereo unspecified)
- LC retention time: 13.4 min

Compound: COc1ccc2c3c1OC1C(=O)CCC4C(C2)N(C)CCC314 (stereo unspecified)
- LC retention time: 10.1 min

Compound: NCC1(CC(=O)O)CCCCC1
- LC retention time: 6.5 min

Compound: CCC(=O)C(CC(C)N(C)C)(c1ccccc1)c1ccccc1 (stereo unspecified)
- LC retention time: 16.6 min

Compound: CC1=CC(O)CC(=O)Cc2nc(co2)C(=O)N2CCC=C2C(=O)OC(C(C)C)C(C)C=CC(=O)NCC=C1.CCC1NC(=O)C(NC(=O)c2ncccc2O)C(C)OC(=O)C(c2ccccc2)NC(=O)C2CC(=O)CCN2C(=O)C(Cc2ccccc2)N(C)C(=O)C2CCCN2C1=O (stereo unspecified)
- LC retention time: 18.4 min

Compound: CCC1OC(=O)C(C)C(OC2CC(C)(OC)C(O)C(C)O2)C(C)C(OC2OC(C)CC(N(C)C)C2O)C(C)(OC)CC(C)C(=O)C(C)C(O)C1(C)O (stereo unspecified)
- LC retention time: 16 min

Compound: CCC1OC(=O)CC(O)C(C)C(OC2OC(C)C(OC3CC(C)(O)C(O)C(C)O3)C(N(C)C)C2O)C(CC=O)CC(C)C(=O)C=CC(C)=CC1COC1OC(C)C(O)C(OC)C1OC (stereo unspecified)
- LC retention time: 15 min

Continued, values first:

- LC retention time: 19 min
Compound: CC(C(=O)O)c1cccc(C(=O)c2ccccc2)c1 (stereo unspecified)

- LC retention time: 12.4 min
Compound: Cc1cc(C)nc(NS(=O)(=O)c2ccc(N)cc2)n1

- LC retention time: 12.7 min
Compound: Cc1nnc(NS(=O)(=O)c2ccc(N)cc2)s1

- LC retention time: 23.6 min
Compound: CC(C)Cc1ccc(C(C)C(=O)O)cc1 (stereo unspecified)

- LC retention time: 13.9 min
Compound: NC(=O)N1c2ccccc2CC(O)c2ccccc21 (stereo unspecified)

- LC retention time: 20.5 min
Compound: COC(=O)c1c(C)nc(C)c(C(=O)OC)c1-c1ccccc1[N+](=O)[O-]

- LC retention time: 14.4 min
Compound: CC(C)NCC(O)COc1cccc2ccccc12 (stereo unspecified)

- LC retention time: 20.9 min
Compound: COc1ccc2cc(C(C)C(=O)O)ccc2c1 (stereo unspecified)

- LC retention time: 12.9 min
Compound: NC(=O)N1c2ccccc2C(O)C(O)c2ccccc21 (stereo unspecified)

- LC retention time: 4.2 min
Compound: CC(C)NCC(O)COc1ccc(CC(N)=O)cc1 (stereo unspecified)

- LC retention time: 21.4 min
Compound: CC(=O)CC(c1ccccc1)c1c(O)c2ccccc2oc1=O (stereo unspecified)

- LC retention time: 15.1 min
Compound: CN(C)CCOC(c1ccccc1)c1ccccc1

- LC retention time: 25 min
Compound: Cc1ccc(C)c(OCCCC(C)(C)C(=O)O)c1

- LC retention time: 8.8 min
Compound: c1ccc2[nH]c(-c3cscn3)nc2c1

- LC retention time: 12.7 min
Compound: COc1ccccc1OCC(O)CO (stereo unspecified)

- LC retention time: 16.5 min
Compound: COc1cc(NS(=O)(=O)c2ccc(N)cc2)nc(OC)n1

- LC retention time: 19.7 min
Compound: O=C(c1ccccc1)c1ccc2n1CCC2C(=O)O (stereo unspecified)

- LC retention time: 10.6 min
Compound: Nc1ccc(S(=O)(=O)Nc2nccs2)cc1

- LC retention time: 6.5 min
Compound: CC(=O)Nc1ccc(O)cc1

- LC retention time: 10.4 min
Compound: CC1(C)SC2C(NC(=O)C(N)c3ccccc3)C(=O)N2C1C(=O)O (stereo unspecified)

- LC retention time: 12.1 min
Compound: COCCc1ccc(OCC(O)CNC(C)C)cc1 (stereo unspecified)

- LC retention time: 17.1 min
Compound: O=C1NC(=O)C(c2ccccc2)(c2ccccc2)N1

- LC retention time: 15.3 min
Compound: Cc1cc(NS(=O)(=O)c2ccc(N)cc2)no1

- LC retention time: 9.4 min
Compound: CC(C)NCC(O)COc1ccc(CC(=O)O)cc1 (stereo unspecified)

- LC retention time: 17.2 min
Compound: NC(=O)N1c2ccccc2C=Cc2ccccc21

- LC retention time: 11.5 min
Compound: Cc1ccnc(NS(=O)(=O)c2ccc(N)cc2)n1

- LC retention time: 4.6 min
Compound: Nc1ccc(S(N)(=O)=O)cc1

- LC retention time: 9.9 min
Compound: Nc1ccc(S(=O)(=O)Nc2ncccn2)cc1

- LC retention time: 17.1 min
Compound: NC(=O)N1c2ccccc2CCc2ccccc21

- LC retention time: 12.7 min
Compound: CCC1(c2ccccc2)C(=O)NCNC1=O

- LC retention time: 24.6 min
Compound: Cc1cccc(Nc2ccccc2C(=O)O)c1C

- LC retention time: 11.3 min
Compound: CN(C)CC(c1ccc(O)cc1)C1(O)CCCCC1 (stereo unspecified)

- LC retention time: 15.8 min
Compound: NC(=O)N1c2ccccc2CC(=O)c2ccccc21

- LC retention time: 3.2 min
Compound: CN1C(=O)CCC1c1cccnc1 (stereo unspecified)

- LC retention time: 15.2 min
Compound: COc1ccc(C2Sc3ccccc3N(CCN(C)C)C(=O)C2OC(C)=O)cc1 (stereo unspecified)

Reference: the RepoRT retention time repository (doi:10.1016/j.chroma.2012.03.059)
